Reference: EPA's ToxValDB 9.5 (doi:10.2903/j.efsa.2006.79r)
In brackets after ≈: the same amount, converted by molar mass.

Experiments:
Rattus norvegicus = conditions: acute; oral; mortality
Coturnix japonica = conditions: acute; oral; mortality
Tagia sp. = conditions: mortality
Canidae = conditions: subchronic; duration: 90 days; oral; diet; Dog Other; clinical signs
Daphnia magna = conditions: chronic/long-term; reproduction
Anas platyrhynchos = conditions: short-term; duration: 5 days; oral; feed; mortality
Apis mellifera = conditions: acute; duration: 48 hours; dermal; mortality
Colinus virginianus = conditions: reproduction developmental
Aphidius rhopalosiphi = experiment: LR50; higher = less toxic; conditions: acute; duration: 48 hours; mortality

CNC(=O)Oc1cc(C)c(SC)c(C)c1 [Methiocarb]
LD50 (Rattus norvegicus): 19 mg/kg | LD50 (Coturnix japonica): 5 mg/kg | LC50 (Tagia sp.; acute): 1330 mg/kg | NOEC (Tagia sp.; chronic/long-term): 0.32 mg/kg | NOAEL (Canidae): 1.33 mg/kg-day | NOEC (Daphnia magna): 0.0001 mg/L | LC50 (Anas platyrhynchos): 1070 mg/kg | LD50 (Apis mellifera): 0.23 µg/piece | NOEC (Colinus virginianus): 4.51 mg/kg-day | LC50 (Oncorhynchus mykiss; acute, mortality): 0.65 µg/mL (≈ 2.88 µM) | NOEC (Oncorhynchus mykiss; chronic/long-term, growth): 0.05 mg/L | LR50 (Aphidius rhopalosiphi): 0.47 g/ha
